Tests used:
[1] = tested on: RFC; conditions: physiological conditions; read-out: Km toward RFC; cited from earlier work
[2] = tested on: R1-11-FR2 and R5-FR12 HeLa cells; design: method as in PMID 19074442; conditions: tritiated FA; cited from earlier work
[3] = in vitro; conditions: human, cytosol
Experimental: Given the relevance of the concentration data, we checked whether the 30 min incubation time could represent a drawback in our analytical approach.
C13* human ovarian cancer cell lines (highly cisplatin-resistant) were prepared as reported for IGROV1 (LC-MS compartmentalization experiment).[65] […] After each interval, the cells (about 2 million per Petri plate) were washed three times with acid phosphate-buffered saline (PBS, pH 5.0), scraped, and counted. […] Each cytosol aliquot was diluted to a final volume of 500 μL with a 1:1 mixture of H2O with 0.1% HCOOH and ACN with 1 μM 1,4-dithiothreitol (DTT) as an antioxidant agent.
Sample analysis was carried out on an UltiMate 3000 UHPLC (Thermo Fisher Scientific) coupled to an Orbitrap Q-Exactive mass spectrometer. We used an Agilent Poroshell C18 column (120 Å, 100 × 2.1 mm^2, 2.7 μm ps) to separate the analytes, thermostated at 30 °C, with an injection volume of 20 μL per sample. […] C13* cells were assumed to have a spherical volume of 2 pL, whose 60% represented by cytoplasm. Thus, interpolated values were multiplied by the final dilution value (500 μL) and divided by the number of cells for each sample multiplied by a single-cell cytosol volume (1.2 pL).

[4] = tested on: hTS
[5] = tested on: A2780 cells; experiment: Cell growth inhibition, crystal violet dye assay (combination study); format: cell-based, human
Text: (§1) SQ was defined as the net growth inhibitory effect of the analogue combination divided by the sum of the net individual analogue effects on growth inhibition. A quotient of >1.1 indicates a synergistic effect, that between 0.9 and 1.1 indicates an additive effect, while a quotient of <0.9 indicates an antagonistic effect.

[6] = tested on: IGROV-1 cells; experiment: Cell growth inhibition, crystal violet dye assay; format: cell-based, human
Text: as §1

[7] = tested on: DHFR; conditions: IGROV-1, 5 μM, 48 h
[8] = tested on: HSP90AA1; conditions: IGROV-1, 5 μM, 48 h

## Nc1nc2ncc(CNc3ccc(C(=O)N[C@@H](CCC(=O)O)C(=O)O)cc3)nc2c(=O)[nH]1 [FA, folic acid]
[1]
  Km: > 100 µM
[2]
  ratio of concentrations between vesicular and cytosolic fractions: 10.8

## CC(C)C[C@H](NC(=O)CC[C@H](NC(=O)c1ccc(NCc2cnc3nc(N)[nH]c(=O)c3n2)cc1)C(=O)O)C(=O)N[C@@H](CO)C(=O)N[C@@H](CS)C(=O)N[C@@H](CCC(N)=O)C(=O)N[C@@H](CC(C)C)C(=O)N[C@@H](Cc1ccc(O)cc1)C(=O)N[C@@H](CCC(N)=O)C(=O)N[C@@H](CCCNC(=N)N)C(=O)O [FA–LR]
[3]
  half-life: 3.33 h

## O=c1[nH]cc(F)c(=O)[nH]1 [5-FU, 5-fluorouracil]
[4]; IGROV-1, Figures SI-10 and SI-11
  hTS protein levels (in words): slightly increased
[5]; 5FU 10µM
  % Growth inhibition, single compound: 45.3%
[5]; 5FU 15µM
  % Growth inhibition, single compound: 34.5%
[6]; 5FU 10µM
  % Growth inhibition, single compound: 28.4%
[6]; 5FU 15µM
  % Growth inhibition, single compound: 36.5%

## CC(C)C[C@H](NC(=O)CC[C@H](NC(=O)c1ccc(NCc2cnc3nc(N)nc(O)c3n2)cc1)C(=O)O)C(=O)N[C@@H](CO)C(=O)N[C@@H](CS)C(=O)N[C@H](CCC(N)=O)C(=O)N[C@@H](CC(C)C)C(=O)N[C@@H](Cc1ccc(O)cc1)C(=O)N[C@@H](CCC(N)=O)C(=O)N[C@@H](CCCNC(=N)N)C(=O)O [FA–[DGln^4]LR]
[7]
  DHFR protein level with respect to control (in words): clear decrease
[8]
  reduction of HSP90AA1 level: 10%

## [NH2][Pt]([NH2])([Cl])[Cl] [cDDP, cisplatin]
[5]; cDDP 1µM
  % Growth inhibition, single compound: 37.3%
[5]; cDDP 2µM
  % Growth inhibition, single compound: 49.1%
[5]; cDDP 5µM
  % Growth inhibition, single compound: 78.6%
[6]; cDDP 1µM
  % Growth inhibition, single compound: 40.3%
[6]; cDDP 2µM
  % Growth inhibition, single compound: 44.9%
[6]; cDDP 5µM
  % Growth inhibition, single compound: 48.8%

## Nc1nc2[nH]cc(CCc3ccc(C(=O)N[C@@H](CCC(=O)O)C(=O)O)cc3)c2c(=O)[nH]1 [PMX, pemetrexed]
[4]; IGROV-1, 5 μM, 48 h
  upregulation of hTS protein levels: 2.5 fold

## Cc1nc2ccc(CN(C)c3ccc(C(=O)N[C@@H](CCC(=O)O)C(=O)O)s3)cc2c(=O)[nH]1 [raltitrexed]
[5]; RTX 10nM
  % Growth inhibition, single compound: 56.8%
[5]; RTX 20nM
  % Growth inhibition, single compound: 59.9%
[6]; RTX 10nM
  % Growth inhibition, single compound: 34.5%
[6]; RTX 20nM
  % Growth inhibition, single compound: 29.5%

Reference: publication PMC8041318, “Folic Acid–Peptide Conjugates Combine Selective Cancer Cell Internalization with Thymidylate Synthase Dimer Interface Targeting” (Journal of Medicinal Chemistry, 2021)
